Assay results as given in patent publication US10206394B2, “Herbicidal compounds” (Syngenta Participations AG, priority 2014, dated 2019).
Read-outs that look alike come from different tables or passages of the source.

Tests used:
Test in all cases: Glasshouse assay for herbicidal activity (pre- and post-emergence), percentage phytotoxicity
Type in all cases: in vivo
[1] = system: Alopecurus myosuroides (ALOMY); conditions: Alopecurus myosuroides
How it was run: (§1)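 Herbicide was applied to potted plants sown in standard soil, one day after sowing for PRE and after about 12 days for POST. Visual percentage damage ratings followed at 15 DAA (POST) and 20 DAA (PRE).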

[2] = system: Echinochloa crus-galli (ECHCG); conditions: Echinochloa crus-galli
How it was run: as §1

Lolium perenne (LOLPE) = conditions: Lolium perenne
How it was run: as §1

Avena fatua (AVEFA) = conditions: Avena fatua
How it was run: as §1

[3] = post-emergence, 360 h, POST-emergence, rate 250 g/ha, visual score 15 DAA (100%=total damage, 0%=no damage), read-out: Post-emergence herbicidal activity (percentage phytotoxicity) ALOMY POST
[4] = pre-emergence, 480 h, PRE-emergence, rate 250 g/ha, visual score 20 DAA (100%=total damage, 0%=no damage), read-out: Pre-emergence herbicidal activity (percentage phytotoxicity) ALOMY PRE
[5] = post-emergence, 360 h, POST-emergence, rate 250 g/ha, visual score 15 DAA (100%=total damage, 0%=no damage), read-out: Post-emergence herbicidal activity (percentage phytotoxicity) ECHCG POST
[6] = pre-emergence, 480 h, PRE-emergence, rate 250 g/ha, visual score 20 DAA (100%=total damage, 0%=no damage), read-out: Pre-emergence herbicidal activity (percentage phytotoxicity) ECHCG PRE
[7] = post-emergence, 360 h, POST-emergence, rate 250 g/ha, visual score 15 DAA (100%=total damage, 0%=no damage), read-out: Post-emergence herbicidal activity (percentage phytotoxicity) LOLPE POST
[8] = pre-emergence, 480 h, PRE-emergence, rate 250 g/ha, visual score 20 DAA (100%=total damage, 0%=no damage), read-out: Pre-emergence herbicidal activity (percentage phytotoxicity) LOLPE PRE
[9] = post-emergence, 360 h, POST-emergence, rate 250 g/ha, visual score 15 DAA (100%=total damage, 0%=no damage), read-out: Post-emergence herbicidal activity (percentage phytotoxicity) AVEFA POST
[10] = pre-emergence, 480 h, PRE-emergence, rate 250 g/ha, visual score 20 DAA (100%=total damage, 0%=no damage), read-out: Pre-emergence herbicidal activity (percentage phytotoxicity) AVEFA PRE
[11] = post-emergence, 360 h, 250 g/ha, post-emergence, 15 DAA, visual assessment (100%=total damage, 0%=no damage), read-out: Post-emergence herbicidal activity (percentage phytotoxicity) ALOMY POST
[12] = pre-emergence, 480 h, 250 g/ha, pre-emergence, 20 DAA, visual assessment (100%=total damage, 0%=no damage), read-out: Pre-emergence herbicidal activity (percentage phytotoxicity) ALOMY PRE
[13] = post-emergence, 360 h, 250 g/ha, post-emergence, 15 DAA, visual assessment (100%=total damage, 0%=no damage), read-out: Post-emergence herbicidal activity (percentage phytotoxicity) ECHCG POST
[14] = pre-emergence, 480 h, 250 g/ha, pre-emergence, 20 DAA, visual assessment (100%=total damage, 0%=no damage), read-out: Pre-emergence herbicidal activity (percentage phytotoxicity) ECHCG PRE
[15] = post-emergence, 360 h, 250 g/ha, post-emergence, 15 DAA, visual assessment (100%=total damage, 0%=no damage), read-out: Post-emergence herbicidal activity (percentage phytotoxicity) LOLPE POST
[16] = pre-emergence, 480 h, 250 g/ha, pre-emergence, 20 DAA, visual assessment (100%=total damage, 0%=no damage), read-out: Pre-emergence herbicidal activity (percentage phytotoxicity) LOLPE PRE
[17] = post-emergence, 360 h, 250 g/ha, post-emergence, 15 DAA, visual assessment (100%=total damage, 0%=no damage), read-out: Post-emergence herbicidal activity (percentage phytotoxicity) AVEFA POST
[18] = pre-emergence, 480 h, 250 g/ha, pre-emergence, 20 DAA, visual assessment (100%=total damage, 0%=no damage), read-out: Pre-emergence herbicidal activity (percentage phytotoxicity) AVEFA PRE

Structure (SMILES) | pest or weed control at 250 g/ha [1, 3] [%] | pest or weed control at 250 g/ha [1, 4] [%] | pest or weed control at 250 g/ha [2, 5] [%] | pest or weed control at 250 g/ha [2, 6] [%] | pest or weed control at 250 g/ha (Lolium perenne (LOLPE); [7]) [%] | pest or weed control at 250 g/ha (Lolium perenne (LOLPE); [8]) [%] | pest or weed control at 250 g/ha (Avena fatua (AVEFA); [9]) [%] | pest or weed control at 250 g/ha (Avena fatua (AVEFA); [10]) [%] | pest or weed control at 250 g/ha [1, 11] [%] | pest or weed control at 250 g/ha [1, 12] [%] | pest or weed control at 250 g/ha [2, 13] [%] | pest or weed control at 250 g/ha [2, 14] [%] | pest or weed control at 250 g/ha (Lolium perenne (LOLPE); [15]) [%] | pest or weed control at 250 g/ha (Lolium perenne (LOLPE); [16]) [%] | pest or weed control at 250 g/ha (Avena fatua (AVEFA); [17]) [%] | pest or weed control at 250 g/ha (Avena fatua (AVEFA); [18]) [%] | also measured
Cc1cc(Br)cc(C)c1C1C(=O)CC(CC(=O)NC/C=C/Cl)C1=O (stereo not drawn) [Compound B176] | 80 | 90 | 80 | 80 | 80 | 90 | 80 | 60 |  |  |  |  |  |  |  |  | 
Cc1cc(-c2ncc(Cl)cc2F)cc(C)c1C1C(=O)CC(CC(=O)NCc2cccc([N+](=O)[O-])c2)C1=O (stereo not drawn) [Compound A122] |  |  |  |  |  |  |  |  |  |  |  |  |  |  |  |  | pest or weed control at 250 g/ha ([1]; post-emergence, 360 h, Rate 250 g/ha, post-emergence, assessed visually 15 DAA, 100%=total damage, 0%=no damage, read-out: Post-emergence herbicidal activity (percentage phytotoxicity) ALOMY POST): 90%; pest or weed control at 250 g/ha ([1]; pre-emergence, 480 h, Rate 250 g/ha, pre-emergence, assessed visually 20 DAA, 100%=total damage, 0%=no damage, read-out: Pre-emergence herbicidal activity (percentage phytotoxicity) ALOMY PRE): 70%; pest or weed control at 250 g/ha ([2]; post-emergence, 360 h, Rate 250 g/ha, post-emergence, assessed visually 15 DAA, 100%=total damage, 0%=no damage, read-out: Post-emergence herbicidal activity (percentage phytotoxicity) ECHCG POST): 100%; pest or weed control at 250 g/ha ([2]; pre-emergence, 480 h, Rate 250 g/ha, pre-emergence, assessed visually 20 DAA, 100%=total damage, 0%=no damage, read-out: Pre-emergence herbicidal activity (percentage phytotoxicity) ECHCG PRE): 90%; pest or weed control at 250 g/ha (Lolium perenne (LOLPE); post-emergence, 360 h, Rate 250 g/ha, post-emergence, assessed visually 15 DAA, 100%=total damage, 0%=no damage, read-out: Post-emergence herbicidal activity (percentage phytotoxicity) LOLPE POST): 70%; pest or weed control at 250 g/ha (Lolium perenne (LOLPE); pre-emergence, 480 h, Rate 250 g/ha, pre-emergence, assessed visually 20 DAA, 100%=total damage, 0%=no damage, read-out: Pre-emergence herbicidal activity (percentage phytotoxicity) LOLPE PRE): 20%; pest or weed control at 250 g/ha (Avena fatua (AVEFA); post-emergence, 360 h, Rate 250 g/ha, post-emergence, assessed visually 15 DAA, 100%=total damage, 0%=no damage, read-out: Post-emergence herbicidal activity (percentage phytotoxicity) AVEFA POST): 100%; pest or weed control at 250 g/ha (Avena fatua (AVEFA); pre-emergence, 480 h, Rate 250 g/ha, pre-emergence, assessed visually 20 DAA, 100%=total damage, 0%=no damage, read-out: Pre-emergence herbicidal activity (percentage phytotoxicity) AVEFA PRE): 0%
C=CCNC(=O)CC1CC(=O)C(c2c(C)cc(Br)cc2C)C1=O (stereo not drawn) [Compound B117] |  |  |  |  |  |  |  |  | 80 | 70 | 70 | 70 | 70 | 70 | 70 | 20 | 
CCCNC(=O)CC1CC(=O)C(c2c(C)cc(-n3cc(Cl)cn3)cc2C)C1=O (stereo not drawn) [Compound B314, 2-[3-[4-(4-chloropyrazol-1-yl)-2,6-dimethyl-phenyl]-2,4-dioxo-cyclopentyl]-N-propyl-acetamide] | 100 | 100 | 80 | 100 | 90 | 90 | 100 | 90 |  |  |  |  |  |  |  |  | 
C=CCNC(=O)CC1CC(=O)C(c2c(C)cc(/C=C/C)cc2C)C1=O (stereo not drawn) [Compound B246] | 100 | 60 | 100 | 70 | 100 | 90 | 100 | 50 |  |  |  |  |  |  |  |  | 
COC(=O)c1cccc(CNC(=O)CC2CC(=O)C(c3c(C)cc(C)cc3C)C2=O)c1 (stereo not drawn) [Compound B10] |  |  |  |  |  |  |  |  | 30 | 0 | 70 | 0 | 30 | 0 | 70 | 0 | 
